Experimental data taken from patent US8815874B2, “Pyrazolopyrimidine derivative” (Kyowa Hakko Kirin Co., Ltd., priority 2010, dated 2014).

System: Dinitrofluorobenzene-Induced Ear Edema Reaction in Mouse
Test: Suppressive action on dinitrofluorobenzene-induced ear edema reaction in mouse (Test Example 2, 50% acetone/50% ethanol solvent)
Assay type: in vivo
Conditions: BALE/c mice (female); test compound 1% (w/v %) in 50% acetone/50% ethanol applied to front and back of auricle 1 hr before and 3 hr after induction; auricle thickness 24 hr after induction
Description: (§1) 5-Week old BALE/c mice (female, supplied by CHARLES RIVER LABORATORIES JAPAN, INC) were purchased and, after quarantine and habituation, those showing satisfactory body weight increase and free of abnormal appearance were used to start the test from 7 weeks of age. The animals were housed and bred in plastic cages (6 mice per cage) in a breeding chamber set at room temperature 19-25° C., humidity 30-70%, 12 hr illumination per day (7 a.m.-7 p.m.), with free access to a commercially available solid feed and water.
(§2) One day before the test, the abdomen was shaved, and a solution of dinitrofluorobenzene (manufactured by Nacalai Tesque) in acetone (manufactured by Wako Pure Chemical Industries, Ltd.) {concentration 0.5% [weight (w)/volume (v) %]} was applied to the shaved part of BALE/c mice by 100 μL for sensitization. On day 5 after sensitization, a dinitrofluorobenzene-acetone solution [concentration 0.2% (w/v %)] was applied to the front and the back of the auricle by 10 μL each (total 20 μL) to induce reaction. A test compound dissolved in 50% acetone/50% ethanol (w/v %) to the concentration of 1% (w/v %) was applied to the front and the back of the auricle 1 hr before and 3 hr after the induction of reaction each by 10 μL (total 20 μL). After the application, the applied part was air-dried by a dryer.
(§3) A group administered with the test compound by coating was taken as a test compound administration group, and a group administered with 50% acetone/50% ethanol (w/v %) (solvent) by coating instead of the test compound was taken as a solvent administration group. In addition, a group free of sensitization and induction of reaction and administered with 50% acetone/50% ethanol (w/v %) by coating instead of the test compound was taken as a normal group. The thickness of the auricle was measured immediately before induction of reaction and 24 hr after the induction with a dial thickness gauge (manufactured by OZAKI MFG. CO., LTD., G-1A), and the difference between them was taken as ear edema. The ear edema suppressive rate (%) was calculated according to the following formula.

Structure (SMILES)	ear edema suppressive rate (%)
CCC(=O)NS(=O)(=O)c1cnn2c(Nc3cc(Cl)ccc3Cl)c(C(=O)N3CCC(c4ccc(F)cc4)CC3)cnc12 [compound a-22, N-{7-(2,5-dichlorophenylamino)-6-[4-(4-fluorophenyl)piperidine-1-carbonyl]pyrazolo[1,5-a]pyrimidin-3-ylsulfonyl}propionamide]	16
CONS(=O)(=O)c1cnn2c(Nc3cc(Cl)ccc3Cl)c(C(=O)N3CCC(c4ccc(F)cc4)CC3)cnc12 [compound a-27, 7-(2,5-dichlorophenylamino)-6-[4-(4-fluorophenyl)piperidine-1-carbonyl]-N-methoxypyrazolo[1,5-a]pyrimidine-3-sulfonamide]	47
CCC(=O)NS(=O)(=O)c1cnn2c(Nc3cc(C)c(F)cc3Cl)c(C(=O)N3CCC(c4ccc(F)cc4)CC3)cnc12 [compound a-40, N-{7-(2-chloro-4-fluoro-5-methylphenylamino)-6-[4-(4-fluorophenyl)piperidine-1-carbonyl]pyrazolo[1,5-a]pyrimidin-3-ylsulfonyl}propionamide]	32
CCC(=O)NS(=O)(=O)c1cnn2c(Nc3cc(C)ccc3Cl)c(C(=O)N3CC4(C3)CN(c3ccc(F)cc3)C4)cnc12 [compound a-60, N-{7-(2-chloro-5-methylphenylamino)-6-[6-(4-fluorophenyl)-2,6-diazaspiro[3,3]heptane-2-carbonyl]pyrazolo[1,5-a]pyrimidin-3-ylsulfonyl}propionamide]	5

System: Dinitrofluorobenzene-Induced Ear Edema Reaction in Mouse
Test: Suppressive action on dinitrofluorobenzene-induced ear edema reaction in mouse (Test Example 1, acetone solvent)
Assay type: in vivo
Conditions: BALE/c mice (female); test compound 1% (w/v %) in acetone applied to front and back of auricle 1 hr before and 3 hr after induction; auricle thickness 24 hr after induction
Description: as §1, with “5-Week to 6-week” for “5-Week”
as §2, with “acetone” for “50% acetone/50% ethanol (w/v %)”
as §3, with “acetone” for “50% acetone/50% ethanol (w/v %)”

Structure (SMILES)	ear edema suppressive rate (%)
O=C(NS(=O)(=O)c1cnn2c(Nc3ccccc3Cl)c(C(=O)N3CCC(c4ccccc4)CC3)cnc12)C1CC1 [compound a-6, N-[7-(2-chlorophenylamino)-6-(4-phenylpiperidine-1-carbonyl)pyrazolo[1,5-a]pyrimidin-3-ylsulfonyl]cyclopropanecarboxamide]	30
CCNC(=O)NS(=O)(=O)c1cnn2c(Nc3cc(C)ccc3Cl)c(C(=O)N3CCC(c4ccc(F)cc4)CC3)cnc12 [compound a-14, 7-(2-chloro-5-methylphenylamino)-N-(ethylcarbamoyl)-6-[4-(4-fluorophenyl)piperidine-1-carbonyl]pyrazolo[1,5-a]pyrimidine-3-sulfonamide]	25
CCNC(=O)NS(=O)(=O)c1cnn2c(Nc3ccc(F)cc3C)c(C(=O)N3CCC4(CC3)OCc3ccccc34)cnc12 [compound a-43, 7-(4-fluoro-2-methylphenylamino)-N-(ethylcarbamoyl)-6-[3H-spiro(isobenzofuran-1,4′-piperidine)-1-carbonyl]pyrazolo[1,5-a]pyrimidine-3-sulfonamide]	40
